Laboratory results reported in patent US7521563B2, “Hydroxamic acid derivative and medicine containing the same as active ingredient” (Shizuoka Coffein Co., Ltd., priority 2004, dated 2009).

How the values were obtained:
IL-6 production = IL-6 production suppression test in LPS-stimulated PMA-differentiated THP-1 cells (ELISA); assay type: cell-based, Human; conditions: for IL-6 production suppression rate (%): THP-1 cells, LPS 1 μg/mL, 24 hours
Protocol: (§1) Tests were conducted with reference to the method by G. Lozanski et al. (J. Rheumatol., Vol. 19, 921-926, 1992).
(§2) Using a 10% fetal calf serum (FCS)-added PRMI-1640 medium, THP-1 cells (Dainippon Pharmaceutical Co., Ltd.) were prepared in an amount of 10^6/mL, and inoculated on a 48-well microplate in an amount of 500 μL per well. 10^−8 M of phorbol 12-myristate 13-acetate (PMA) was added to the wells, and the cells were cultured for 24 hours to induce differentiation of the cells to macrophages.
(§3) 50 μL of test substance diluting liquid or DMSO diluting liquid was added to the wells, and the cells were preincubated by a CO2 incubator at 37° C. for 30 minutes. 5 μL of LPS (111 μg/mL) (final concentration: 1 μg/mL) was added to each well. Furthermore, wells with no LPS added to the DMSO diluting liquid were set. After the cells were cultured for 24 hours, they were centrifuged to take cell supernatants, and the IL-6 level was measured using the Human IL-6 ELISA kit (Biosource International), and TNFα was measured using the Human tumor necrosis factor-α ELISA kit (Biosource International), by the enzyme-linked immunosorbent assay (ELISA).

TNFα production = TNFα production suppression test in LPS-stimulated PMA-differentiated THP-1 cells (ELISA); assay type: cell-based, Human; conditions: for TNFα production suppression rate (%): THP-1 cells, LPS 1 μg/mL, 24 hours
Protocol: as §1, §2, §3

THP-1 cells = experiment: Evaluation of cytotoxicity by the MTT method; assay type: cell-based; conditions: DMSO well = 100%
Protocol: Cytotoxicity was evaluated by the MTT method.
Specifically, a 0.5 mg/mL solution of 3-(4,5-dimethyl-2-thiazolyl)-2,5-diphenyl-2H-tetrazolium bromide (MTT, Sigma) prepared in a 10% fetal calf serum (FCS)-added PRMI-1640 medium was added in an amount of 100 μL per well to cells with culture supernatants removed in test example 1, and the cells were cultured for 3 hours. The culture solution was removed by centrifugal separation, 100 μL of methanol was added to each well, and the absorbance was measured at a wavelength of 570 nm after cytolysis.
The absorbances for the well to which the DMSO diluting liquid was added and the well to which no LPS was added are 100% and 0%, respectively, the absorbances for wells of different doses of test substances are expressed as percentages, and the results are shown in Table 4.

[1] = range of concentrations 1×10^−5-−9 M
[2] = concentration 1 × 10^−9 M (first column)
[3] = concentration 1 × 10^−9 M (second column, as printed)
[4] = active concentration 1 × 10^−6 M
[5] = active concentration 1 × 10^−7 M

SMILES	IL-6 production suppressing activity (IL-6 production; [1])	TNFα production suppressing activity (TNFα production; [1])	Cytotoxicity test: absorbance (570 nm, MTT) expressed as percentage (THP-1 cells; concentration 1 × 10^−5 M) [%]	Cytotoxicity test: absorbance (570 nm, MTT) expressed as percentage (THP-1 cells; concentration 1 × 10^−6 M) [%]	Cytotoxicity test: absorbance (570 nm, MTT) expressed as percentage (THP-1 cells; concentration 1 × 10^−7 M) [%]	Cytotoxicity test: absorbance (570 nm, MTT) expressed as percentage (THP-1 cells; [2]) [%]	Cytotoxicity test: absorbance (570 nm, MTT) expressed as percentage (THP-1 cells; [3]) [%]	TNFα production suppression rate (%) (TNFα production; [4])	IL-6 production suppression rate (%) (IL-6 production; [4])	TNFα production suppression rate (%) (TNFα production; [5])	IL-6 production suppression rate (%) (IL-6 production; [5])
O=C(O)CCCCCc1nc(-c2ccccc2)c(-c2ccccc2)o1 [4,5-diphenyl-2-oxazolehexanoic acid, reference compound]	no activity	no activity	–	–	–	–	–	–	–	–	–
O=C(CCCCCc1nc(-c2ccccc2)c(-c2ccc(F)cc2)s1)NO [Example 8, 5-(4-fluorophenyl)-N-hydroxy-4-phenyl-2-thiazolehexanamide]	–	–	88.9	113.7	106.7	106.7	105.3	40	–	–	–
O=C(CCCCCc1ncc(-c2ccc(Br)cc2)s1)NO [Example 20, 5-(4-bromophenyl)-N-hydroxy-2-thiazolehexanamide]	–	–	82.3	97.6	102.0	95.6	104.0	–	64	44	–
O=C(CCCCCCc1nc(-c2ccccc2)c(-c2ccccc2)o1)NO [Example 24, N-hydroxy-4,5-diphenyl-2-oxazoleheptanamide]	–	–	83.8	91.8	88.1	96.4	83.9	–	–	–	50
O=C(CCCCCc1nc(-c2ccccc2)c(-c2ccccc2)o1)NO [Example 25, N-hydroxy-4,5-diphenyl-2-oxazolehexanamide]	–	–	78.9	83.6	87.6	85.8	91.9	–	–	–	50
